US10854312B2, “Selective peptide antagonists” (BIONIZ, LLC, priority 2013, dated 2020)
Entries after “also recorded” stand apart in the source; their conditions may differ. No end group written: not given here.

Assays:
Format in all cases: cell-based
mouse IL-9 = assay: PT-18 proliferation assay (WST-1), IL-9; conditions: murine PT-18 cells, 1 nM mouse IL-9, BNZ132-1 50 nM, 500 nM, 5 μM
Description: (§1) FIG. 6A-FIG. 6E presents inhibitory spectrum of BNZ132-1 over γc- and non-γc-cytokines. […] Neutralizing antibodies against each cytokine (R & D systems, 5 μg ml^−1) were included as controls. After 20 h, the cells were pulsed with WST-1 (Clontech) and OD450 of each well was measured after 6 h. A 19-mer scrambled peptide was used as a negative control at 5 μM. The experiments were conducted in triplicate (applies to all experiments in FIG. 6A-FIG. 6E). The result represents one of at least three independent experiments (applies to all experiments in FIG. 6A-FIG. 6E). […] In PT-18 proliferation assay, PT-18β or PT-18h21Rα cells were withdrawn of mouse IL-3 for 12 h before the experiment. Cells were then incubated with 1 nM of mouse IL-4, mouse IL-9, or mouse IL-21 in the presence or absence of the indicated doses (μM) of BNZ132-1. Neutralizing antibodies to each cytokine (5 μg ml^−1, except for anti-mouse IL-21 polyclonal antibody which was used at 15 μg ml−1) and a scrambled control peptide (5 μM) were included as negative controls. WST-1 assay was conducted as described above. […] In PT-18 h21Rα survival assay, PT-18h21Rα cells are described in the text. […] Both parental and hIL-21Rα positive PT-18 cells were washed and incubated without IL-3 for 12 h before the assay. […] The Y-axis represents the cpm (count per minute) values measured by a β-counter. […]

mouse stem cell factor = mouse stem cell factor (Mus musculus, UniProt P20826); assay: PT-18β proliferation assay (3H-thymidine), non-γc cytokine SCF; conditions: 1 nM mouse stem cell factor, 15 μM BNZ132-1
human IL-7 = assay: Human peripheral T-cell (PBMC) proliferation assay, IL-7; conditions: ex vivo human primary T cells, 10 nM human IL-7
Description: as §1

Chain of mouse stem cell factor (P20826 26-273): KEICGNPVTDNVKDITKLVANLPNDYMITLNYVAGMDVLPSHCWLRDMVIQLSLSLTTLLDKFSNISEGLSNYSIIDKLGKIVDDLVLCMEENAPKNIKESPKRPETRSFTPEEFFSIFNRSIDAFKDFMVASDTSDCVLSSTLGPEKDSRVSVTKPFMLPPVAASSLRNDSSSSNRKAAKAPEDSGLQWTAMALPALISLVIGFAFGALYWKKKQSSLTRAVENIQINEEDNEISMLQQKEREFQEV

For IKEFLQRFIHIVQSIINTS [BNZ132-1], the “inhibition of IL-9-induced proliferation of PT-18 cells” value (mouse IL-9) was “partially inhibited; also recorded: inhibition of IL-9”, the “inhibition of SCF-induced proliferation of PT-18β cells” value (mouse stem cell factor) was “did not inhibit; also recorded: no inhibition; also recorded: no inhibition of non-γc cytokines” and the “inhibition of IL-7-induced proliferation of ex vivo human T cells” value (human IL-7) was “not significantly inhibited; also recorded: no inhibition of IL-7”.
